According to US20240287138A1, “CYCLIC PEPTIDES FOR INHIBITING TNF RECEPTOR 1 ACTIVITY” (Merck Sharp & Dohme LLC, priority 2023, published 2024):
Numbered stars: 1 amine (or outer) side, 2 acyl side, 3 side chain; on linkers, the order of the positions; unused ones are H or OH. Bridge positions count the residues as written; N and C are the ends. Square brackets hold non-standard residues; d marks the D form. Peptide text beside a SMILES is read from it. * marks the point of attachment. Trp(βS-Me,7-OMe) = COc1cccc2c([C@H](C)[C@H](N)C(=O)O)c[nH]c12; Phe(4-SO2NH2) = N[C@@H](Cc1ccc(S(N)(=O)=O)cc1)C(=O)O; Phe(2-F,4-COOH) = N[C@@H](Cc1ccc(C(=O)O)cc1F)C(=O)O; Trp(7-CN) = N#Cc1cccc2c(C[C@H](N)C(=O)O)c[nH]c12; Trp(7-Cl) = N[C@@H](Cc1c[nH]c2c(Cl)cccc12)C(=O)O; Phe(4-CONH2) = NC(=O)c1ccc(C[C@H](N)C(=O)O)cc1; Phe(4-COOH) = N[C@@H](Cc1ccc(C(=O)O)cc1)C(=O)O; Trp(7-aza) = N[C@@H](Cc1c[nH]c2ncccc12)C(=O)O; X3 = C[C@H](c1ccncc1)[C@H](N[*:1])C(=O)[*:2]; dPro(4S-NH2) = N[C@@H]1CN[C@@H](C(=O)O)C1; Pip(5R-OH) = O=C(O)[C@@H]1CC[C@@H](O)CN1; X1 = O=C([C@@H]1CC[C@H](N[*:1])C1)[*:2]; Gly(Nα-CH2CH2CONH2) = NC(=O)CCNCC(=O)O; Pip(4-aza) = O=C(O)[C@@H]1CNCCN1; 4Pal = N[C@@H](Cc1ccncc1)C(=O)O; NMeE = CN[C@@H](CCC(=O)O)C(=O)O; dHyp = O=C(O)[C@H]1C[C@H](O)CN1; Ahp(2) = CCCCC[C@H](N)C(=O)O; αMeS = C[C@](N)(CO)C(=O)O; Carboxymethyl = O=C(O)C*; Nle = CCCC[C@H](N)C(=O)O; Sar = CNCC(=O)O

How the values were obtained:
human TNFR2 ECD protein = target: T1, human TNFR2 ECD protein (Homo sapiens, UniProt P20333); experiment: SPR off-target binding (selectivity) to human TNFR2 ECD
T1 construct: HRV 3C protease cleavage site (C); 6His (C, cleaved yes); made in house; host or cells: Sf21 insect cells (baculovirus), secreted
T1 sequence (P20333 23-257): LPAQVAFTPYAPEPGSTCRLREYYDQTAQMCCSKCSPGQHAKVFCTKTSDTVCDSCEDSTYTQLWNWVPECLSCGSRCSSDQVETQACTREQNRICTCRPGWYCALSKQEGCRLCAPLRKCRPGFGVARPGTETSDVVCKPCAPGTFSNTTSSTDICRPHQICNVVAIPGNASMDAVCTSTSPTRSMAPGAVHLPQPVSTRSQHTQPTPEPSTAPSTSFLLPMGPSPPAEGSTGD
Outline: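 Biotinylated human TNFR1 or TNFR2 ECD (C-terminal Avi-tag, Sf21-expressed) captured on a regenerable streptavidin chip; peptide analytes flowed in 10 mM HEPES pH 7.4, 150 mM NaCl, 3 mM EDTA, 0.05% P20, 2% DMSO. kon and koff measured; affinity calculated from the rate constants.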

[1] = target: T2, human soluble TNFR1 (sTNFR1) (Homo sapiens, UniProt P19438); experiment: Human sTNFR1-peptide displacement assay (LanthaScreen Eu TR-FRET binding assay)
T2 construct: made in house; host or cells: Sf21 (baculovirus)
T2 sequence (P19438 with tags, fused parts or gaps): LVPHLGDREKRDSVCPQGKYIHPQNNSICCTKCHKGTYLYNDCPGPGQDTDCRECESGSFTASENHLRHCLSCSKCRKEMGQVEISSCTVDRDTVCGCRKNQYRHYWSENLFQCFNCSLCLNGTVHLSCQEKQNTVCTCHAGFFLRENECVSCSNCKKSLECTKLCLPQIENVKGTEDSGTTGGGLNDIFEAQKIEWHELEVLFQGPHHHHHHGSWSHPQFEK
Outline: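 Readout is the 665/615 nm TR-FRET ratio (Eu anti-His donor, streptavidin-Alexa647 acceptor), normalized to DMSO and saturating displacer, fit by Morrison-based five-parameter logistic for Kd^app. His-tagged sTNFR1 (1-211) prebound to 100 nM biotinylated peptide SEQ ID NO.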

Compound	Kd (human TNFR2 ECD protein) [nM]	Kd [1] [nM]	IC50 [1] [nM]
CCCC[C@@H]1NC(=O)[C@@H]2CC[C@@H](C2)NC(=O)[C@H]([C@@H](C)c2c[nH]c3c(OC)cccc23)NC(=O)CN(C)C(=O)[C@H](Cc2ccc(C(=O)O)cc2)NC(=O)[C@H](Cc2ccc(C(N)=O)cc2)NC(=O)[C@](C)(CO)NC(=O)[C@H](Cc2c[nH]c3c(C#N)cccc23)NC(=O)[C@H](Cc2ccc(C(=O)O)cc2)NC(=O)[C@H](CC(N)=O)NC(=O)CN(CCC(N)=O)C(=O)[C@H](Cc2c[nH]c3ccccc23)NC(=O)[C@@H]2CC[C@@H](O)CN2C(=O)[C@H](Cc2ccncc2)NC1=O [SEQ ID NO. 130] (cyclo([4Pal][Pip(5R-OH)]W[Gly(Nα-CH2CH2CONH2)]N[Phe(4-COOH)][Trp(7-CN)][αMeS][Phe(4-CONH2)][Phe(4-COOH)][Sar][Trp(βS-Me,7-OMe)][X1][Nle]))	> 1000	0.01	
CCCC[C@@H]1NC(=O)[C@@H]2CC[C@@H](C2)NC(=O)[C@H]([C@@H](C)c2c[nH]c3c(OC)cccc23)NC(=O)CN(C)C(=O)[C@H](Cc2ccc(C(=O)O)cc2F)NC(=O)[C@H](Cc2ccc(S(N)(=O)=O)cc2)NC(=O)[C@](C)(CO)NC(=O)[C@H](Cc2c[nH]c3c(C#N)cccc23)NC(=O)[C@H](Cc2ccc(C(=O)O)cc2F)NC(=O)[C@H](CC(N)=O)NC(=O)[C@H]2C[C@H](OCC(=O)O)CN2C(=O)[C@H](Cc2c[nH]c3ncccc23)NC(=O)[C@@H]2CC[C@@H](O)CN2C(=O)[C@H](Cc2ccncc2)NC1=O [SEQ ID NO. 134] (cyclo([4Pal][Pip(5R-OH)][Trp(7-aza)][dHyp](Carboxymethyl)N[Phe(2-F,4-COOH)][Trp(7-CN)][αMeS][Phe(4-SO2NH2)][Phe(2-F,4-COOH)][Sar][Trp(βS-Me,7-OMe)][X1][Nle]))	> 1000	0.06	
CCCCC[C@@H]1NC(=O)[C@@H]2CC[C@@H](C2)NC(=O)[C@H]([C@@H](C)c2c[nH]c3c(OC)cccc23)NC(=O)CN(C)C(=O)[C@H](Cc2ccc(C(N)=O)cc2)NC(=O)[C@H](Cc2ccc(C(N)=O)cc2)NC(=O)[C@](C)(CO)NC(=O)[C@H](Cc2c[nH]c3c(C#N)cccc23)NC(=O)[C@H](Cc2ccc(C(=O)O)cc2)NC(=O)[C@H](CC(N)=O)NC(=O)[C@H]2C[C@H](OCC(=O)O)CN2C(=O)[C@H](Cc2c[nH]c3ccccc23)NC(=O)[C@@H]2CNCCN2C(=O)[C@H](Cc2ccncc2)NC1=O [SEQ ID NO. 140] (cyclo([4Pal][Pip(4-aza)]W[dHyp](Carboxymethyl)N[Phe(4-COOH)][Trp(7-CN)][αMeS][Phe(4-CONH2)][Phe(4-CONH2)][Sar][Trp(βS-Me,7-OMe)][X1][Ahp(2)]))	> 1000	0.06	
CCCC[C@@H]1NC(=O)[C@@H]2CC[C@@H](C2)NC(=O)[C@H]([C@@H](C)c2c[nH]c3c(OC)cccc23)NC(=O)CN(C)C(=O)[C@H](Cc2ccc(O)cc2)NC(=O)[C@H](Cc2ccc(C(=O)O)cc2)NC(=O)[C@](C)(CO)NC(=O)[C@H](Cc2c[nH]c3c(Cl)cccc23)NC(=O)[C@H](Cc2ccncc2)NC(=O)[C@H](CC(N)=O)NC(=O)CN(C)C(=O)[C@H](Cc2c[nH]c3ccccc23)NC(=O)[C@@H]2CNCCN2C(=O)[C@H](Cc2ccncc2)NC1=O [SEQ ID NO. 141] (cyclo([4Pal][Trp(7-Cl)][αMeS][Phe(4-COOH)]Y[Sar][Trp(βS-Me,7-OMe)][X1][Nle][4Pal][Pip(4-aza)]W[Sar]N))	> 1000	0.17	
CCCC[C@@H]1NC(=O)CSC[C@@H](C(N)=O)NC(=O)[C@H]([C@@H](C)c2c[nH]c3c(OC)cccc23)NC(=O)CN(C)C(=O)[C@H](Cc2ccc(O)cc2)NC(=O)[C@H](Cc2ccc(C(=O)O)cc2)NC(=O)[C@](C)(CO)NC(=O)[C@H](Cc2c[nH]c3c(Cl)cccc23)NC(=O)[C@H](Cc2ccncc2)NC(=O)[C@H](CC(N)=O)NC(=O)[C@H](CCC(=O)O)N(C)C(=O)[C@H](Cc2c[nH]c3ncccc23)NC(=O)[C@H](CO)NC(=O)[C@H]([C@H](C)c2ccncc2)NC1=O [SEQ ID NO. 143] ({CH2CO}-[Nle][X3]S[Trp(7-aza)][NMeE]N[4Pal][Trp(7-Cl)][αMeS][Phe(4-COOH)]Y[Sar][Trp(βS-Me,7-OMe)]C-NH2; thioether N-14)	> 1000	0.21	0.4
CCCC[C@@H]1NC(=O)[C@@H]2CC[C@@H](C2)NC(=O)[C@H]([C@@H](C)c2c[nH]c3c(OC)cccc23)NC(=O)CN(C)C(=O)[C@H](Cc2ccc(O)cc2)NC(=O)[C@H](Cc2ccc(C(N)=O)cc2)NC(=O)[C@](C)(CO)NC(=O)[C@H](Cc2c[nH]c3c(Cl)cccc23)NC(=O)[C@H](Cc2ccncc2)NC(=O)[C@H](CC(N)=O)NC(=O)[C@H]2C[C@H](N)CN2C(=O)[C@H](Cc2c[nH]c3ccccc23)NC(=O)[C@@H]2CC[C@@H](O)CN2C(=O)[C@H](Cc2ccncc2)NC1=O [SEQ ID NO. 144] (cyclo([4Pal][Trp(7-Cl)][αMeS][Phe(4-CONH2)]Y[Sar][Trp(βS-Me,7-OMe)][X1][Nle][4Pal][Pip(5R-OH)]W[dPro(4S-NH2)]N))	> 1000	0.07	
